Columns and labels:
[1] = system: PNT2 cells; experiment: MTT assay, PNT2 cells; assay type: cell-based, human; conditions: non-cancer cells, 48 h of treatment, mean ± SD
Description: (§1) The human prostate cancer cell lines PC-3, DU145, 22Rv1 and LNCaP, as well as human prostate non-cancer cell line PNT2 were purchased from ATCC (Manassas, VA, USA). HEK 293T (human embryonic kidney cells) and MRC-9 (human fibroblast cells) cell lines were purchased from ECACC (Salisbury, UK). […] Authentication of all cell lines used was recently performed by a commercial service (Multiplexion GmbH, Heidelberg, Germany).
(§2) Cells were cultured as monolayers at 37 °C in a humidified atmosphere with 5% (v/v) CO2 in the correspondent culture medium: 10% FBS/RPMI medium (RPMI medium supplemented with Glutamax^TM-I (gibco® Life technologies^TM, Paisley, UK) containing 10% fetal bovine serum (FBS, gibco® Life technologies^TM) and 1% penicillin/streptomycin (Invitrogen)) for PNT2, LNCaP, 22Rv1, PC-3 and DU145 and cells; 10% FBS/DMEM medium (DMEM medium supplemented with Glutamax^TM-I (gibco® Life technologies^TM) containing 10% FBS and 1% penicillin/streptomycin (gibco® Life technologies^TM)) for MRC-9 and HEK 293 cells. Cells were continuously kept in culture for a maximum of 3 months, and were regularly checked for stable phenotype and mycoplasma infection.
(§3) Effect of the drugs on cell viability in terms of metabolic activity was assessed by MTT assay, as previously reported. Cells were pre-incubated overnight in 96-well plates (6 × 10^3 cells/well in 100 μL/well) in the correspondent culture media. Then, the medium was replaced with fresh 10% FBS/RPMI medium containing the investigated compounds (100 μL/well), and cells were incubated for 48 h, unless otherwise stated. Next, 10 μL/well of (3-(4,5-dimethylthiazol-2-yl)-2,5-diphenyltetrazolium bromide) reagent (MTT, 5 mg/mL) was added. After 2–4 h of incubation, the media was aspirated and the plates were dried. Then, 50 μL/well of DMSO was added to each well and the cell viability was measured using an Infinite F200PRO reader (TECAN, Männedorf, Switzerland). Results were calculated using the GraphPad Prism software v.9.1.1 (GraphPad Software, San Diego, CA, USA) and are represented as IC50 of the compounds calculated using the cells treated with the solvent alone as a control.

[2] = system: 22Rv1 cells; experiment: DNA fragmentation (apoptosis, sub-G1), flow cytometry with PI staining; assay type: cell-based, human; conditions: treated at IC50 (MTT assay) for 48 h, mean ± SD
Description: The effects on cell cycle progression and DNA fragmentation were analyzed by flow cytometry using PI staining, as described before. Cells (2 × 10^5 cells/well) were pre-incubated overnight in 6-well plates and then treated with the investigated drugs in fresh culture media (2 mL/well) for 48 h. Cells were harvested by trypsinization, fixed in 70% EtOH, stained with PI solution and analyzed by FACS Calibur (BD Bioscience, San Jose, CA, USA). The results were quantified using BD Bioscience Cell Quest Pro v.5.2.1. software (BD Bioscience). The cells appearing as a sub-G1 population (containing fragmented DNA) were considered to be apoptotic.

[3] = system: prostate cancer cell lines (PC-3, 22Rv1, DU145 and LNCaP); experiment: MTT assay, mean over four prostate cancer cell lines; assay type: cell-based; conditions: Homo sapiens; mean of MTT IC50 in PC-3, 22Rv1, DU145 and LNCaP; from Table S1 values; read-out: mean IC50 in cancer cells
Description: as §3, with “Next, SAR analysis was performed to identify the structural elements that are beneficial for anticancer activity of the fascaplysin-related molecules. Considering the complex and heterogeneous nature of tumors even within the same patient, we used calculated mean IC50 values of each drug in all prostate cancer cells for further analysis (Figure 2A). To identify the drug candidates with the highest therapeutic potential, the selectivity index (SI) was calculated as mean IC50 in non-cancer cells versus mean IC50 in cancer cells (Figure 2B), or as a mean IC50 in non-cancer (MRC-9 and HEK293) cells versus mean IC50 in prostate cells (cancer PC-3, 22Rv1, DU145, LNCaP and non-cancer PNT2 cells) (Figure 2C). Finally, to estimate the effects on cellular metabolism, we compared the activity evaluated by using trypan blue assay versus MTT assay (Figure 2D). Effect” for “Effect”, “2-4” for “2–4”, “F200PRO” left out

[4] = system: DU145 cells; experiment: MTT assay, DU145 cells; assay type: cell-based, human; conditions: prostate cancer cells, 48 h of treatment, mean ± SD
Description: as §1, §2, §3

[5] = system: non-cancer cell lines versus cancer cell lines; experiment: Selectivity index from MTT IC50s; assay type: cell-based, human; conditions: MTT; for Selectivity index, IC50 (non-prostate) / IC50 (prostate): mean IC50 MRC-9 and HEK-293 versus mean IC50 prostate cancer cell lines plus PNT2; for Selectivity index, IC50 (non-cancer) / IC50 (cancer): mean IC50 non-cancer cell lines versus mean IC50 cancer cell lines
Description: as §3, with “Next, SAR analysis was performed to identify the structural elements that are beneficial for anticancer activity of the fascaplysin-related molecules. Considering the complex and heterogeneous nature of tumors even within the same patient, we used calculated mean IC50 values of each drug in all prostate cancer cells for further analysis (Figure 2A). To identify the drug candidates with the highest therapeutic potential, the selectivity index (SI) was calculated as mean IC50 in non-cancer cells versus mean IC50 in cancer cells (Figure 2B), or as a mean IC50 in non-cancer (MRC-9 and HEK293) cells versus mean IC50 in prostate cells (cancer PC-3, 22Rv1, DU145, LNCaP and non-cancer PNT2 cells) (Figure 2C). Finally, to estimate the effects on cellular metabolism, we compared the activity evaluated by using trypan blue assay versus MTT assay (Figure 2D). Effect” for “Effect”, “2-4” for “2–4”, “F200PRO” left out

[6] = system: LNCaP cells; experiment: MTT assay, LNCaP cells; assay type: cell-based, human; conditions: prostate cancer cells, 48 h of treatment, mean ± SD
Description: as §1, §2, §3

[7] = system: 22Rv1 cells; experiment: Trypan blue-based viability assay; assay type: cell-based, human; conditions: 48 h of treatment, mean ± SD, read-out: IC50, trypan blue staining assay
Description: The effect of the drugs on cell viability in terms of cellular membrane integrity was evaluated by the trypan blue exclusion assay as described before. In brief, cells (0.2 × 10^6 cells/well) were seeded in 6-well plates and incubated overnight, and the media was replaced with fresh media (1 mL/well) containing drugs at indicated concentrations. After treatment for 48 h, the cells were harvested by trypsinization, stained with trypan blue and the viability was measured using an automatic Beckman Coulter Vi-CELL (Beckman Coulter, Krefeld, Germany). Trypan blue-positive cells were assumed to have damaged cellular membrane (i.e., dead), whereas trypan blue-negative cells were considered to have an intact cellular membrane (i.e., alive).

[8] = system: HEK-293 cells; experiment: MTT assay, HEK-293 cells; assay type: cell-based, human; conditions: non-cancer cells, 48 h of treatment, mean ± SD
Description: as §1, §2, §3

[9] = system: 22Rv1 cells; experiment: MTT assay, 22Rv1 cells; assay type: cell-based, human; conditions: prostate cancer cells, 48 h of treatment, mean ± SD
Description: as §1, §2, §3

[10] = system: MRC-9 cells; experiment: MTT assay, MRC-9 cells; assay type: cell-based, human; conditions: non-cancer cells, 48 h of treatment, mean ± SD
Description: as §1, §2, §3

[11] = system: PC-3 cells; experiment: MTT assay, PC-3 cells; assay type: cell-based, human; conditions: prostate cancer cells, 48 h of treatment, mean ± SD
Description: as §1, §2, §3

O=C1c2cc(Br)ccc2-[n+]2ccc3c([nH]c4ccc(Br)cc43)c21.[Cl-] [Compound 10, 12,13-dihydro-2,9-dibromo-13-oxopyrido[1,2-a:3,4-b’]diindol-5-ium chloride]
IC50 ([1]; Homo sapiens, PNT2): 614 ± 98 nM
% of sub-G1 apoptotic cells (at IC50) [2]: 24.0±5.37%
IC50 [3]: 1090 nM
IC50 ([4]; Homo sapiens, DU-145): 913 ± 116 nM
Selectivity index, IC50 (non-prostate) / IC50 (prostate) [5]: 2.62
Selectivity index, IC50 (non-cancer) / IC50 (cancer) [5]: 1.78
IC50 ([6]; Homo sapiens, LNCaP): 1130 ± 803 nM
IC50 ([7]; Homo sapiens): 215 ± 36 nM
IC50 ([8]; Homo sapiens, HEK293): 250 ± 34 nM
IC50 ([9]; Homo sapiens, 22Rv1): 490 ± 39 nM
IC50 ([10]; Homo sapiens, MRC9): 4960 ± 386 nM
IC50 ([11]; Homo sapiens, PC-3): 1830 ± 100 nM

O=C1c2cc(Br)ccc2-[n+]2ccc3c([nH]c4c(Br)cc(Br)cc43)c21.[Cl-] [Compound 13, 12,13-dihydro-2,9,11-tribromo-13-oxopyrido[1,2-a:3,4-b’]diindol-5-ium chloride]
IC50 ([1]; Homo sapiens, PNT2): 4380 ± 674 nM
% of sub-G1 apoptotic cells (at IC50) [2]: 27.6±7.52%
IC50 [3]: 7690 nM
IC50 ([4]; Homo sapiens, DU-145): 13200 ± 4440 nM
Selectivity index, IC50 (non-prostate) / IC50 (prostate) [5]: 2.29
Selectivity index, IC50 (non-cancer) / IC50 (cancer) [5]: 1.59
IC50 ([6]; Homo sapiens, LNCaP): 7630 ± 740 nM
IC50 ([7]; Homo sapiens): 4480 ± 1650 nM
IC50 ([8]; Homo sapiens, HEK293): 2250 ± 990 nM
IC50 ([9]; Homo sapiens, 22Rv1): 3980 ± 300 nM
IC50 ([10]; Homo sapiens, MRC9): 30000 ± 5800 nM
IC50 ([11]; Homo sapiens, PC-3): 5940 ± 860 nM

N.N.[Cl][Pt][Cl] [Cis, Cisplatin, reference compound]
IC50 [1]: 9410 ± 3120 nM
% of sub-G1 apoptotic cells (at IC50) [2]: 14.7±3.43%
IC50 [4]: 1320 ± 530 nM
Selectivity index, IC50 (non-prostate) / IC50 (prostate) [5]: 0.92
Selectivity index, IC50 (non-cancer) / IC50 (cancer) [5]: 1.23
IC50 [6]: 2750 ± 550 nM
IC50 [7]: 190 ± 44 nM
IC50 [8]: 6440 ± 1770 nM
IC50 [9]: 990 ± 290 nM
IC50 [10]: 6750 ± 1990 nM
IC50 [11]: 34600 nM

O=C1c2ccc(Br)cc2-[n+]2ccc3c([nH]c4ccc(Br)cc43)c21.[Cl-] [Compound 15, 12,13-dihydro-3,9-dibromo-13-oxopyrido[1,2-a:3,4-b’]diindol-5-ium chloride]
IC50 ([1]; Homo sapiens, PNT2): 643 ± 49 nM
% of sub-G1 apoptotic cells (at IC50) [2]: 8.63±0.71%
IC50 [3]: 2100 nM
IC50 ([4]; Homo sapiens, DU-145): 616 ± 94 nM
Selectivity index, IC50 (non-prostate) / IC50 (prostate) [5]: 3.56
Selectivity index, IC50 (non-cancer) / IC50 (cancer) [5]: 2.15
IC50 ([6]; Homo sapiens, LNCaP): 2600 ± 367 nM
IC50 ([7]; Homo sapiens): 2850 ± 487 nM
IC50 ([8]; Homo sapiens, HEK293): 275 ± 21 nM
IC50 ([9]; Homo sapiens, 22Rv1): 2240 ± 811 nM
IC50 ([10]; Homo sapiens, MRC9): 12600 ± 6940 nM
IC50 ([11]; Homo sapiens, PC-3): 2950 ± 230 nM

Cc1c[n+]2c(c3[nH]c4ccccc4c13)C(=O)c1ccccc1-2.[Cl-] [Compound 18, 12,13-dihydro-7-methyl-13-oxopyrido[1,2-a:3,4-b’]diindol-5-ium chloride]
IC50 ([1]; Homo sapiens, PNT2): 956 ± 92 nM
% of sub-G1 apoptotic cells (at IC50) [2]: 23.1±3.42%
IC50 [3]: 1110 nM
IC50 ([4]; Homo sapiens, DU-145): 1790 ± 478 nM
Selectivity index, IC50 (non-prostate) / IC50 (prostate) [5]: 0.82
Selectivity index, IC50 (non-cancer) / IC50 (cancer) [5]: 0.82
IC50 ([6]; Homo sapiens, LNCaP): 803 ± 80 nM
IC50 ([7]; Homo sapiens): 472 ± 185 nM
IC50 ([8]; Homo sapiens, HEK293): 590 ± 85 nM
IC50 ([9]; Homo sapiens, 22Rv1): 790 ± 38 nM
IC50 ([10]; Homo sapiens, MRC9): 1180 ± 96 nM
IC50 ([11]; Homo sapiens, PC-3): 1070 ± 550 nM

O=C1c2cc(Br)ccc2-[n+]2ccc3c([nH]c4ccc(I)cc43)c21.[Cl-] [Compound 11, 12,13-dihydro-2-bromo-9-iodo-13-oxopyrido[1,2-a:3,4-b’]diindol-5-ium chloride]
IC50 ([1]; Homo sapiens, PNT2): 860 ± 72 nM
% of sub-G1 apoptotic cells (at IC50) [2]: 13.1±2.86%
IC50 [3]: 2000 nM
IC50 ([4]; Homo sapiens, DU-145): 1350 ± 318 nM
Selectivity index, IC50 (non-prostate) / IC50 (prostate) [5]: 9.15
Selectivity index, IC50 (non-cancer) / IC50 (cancer) [5]: 5.55
IC50 ([6]; Homo sapiens, LNCaP): 1170 ± 84 nM
IC50 ([7]; Homo sapiens): 1330 ± 277 nM
IC50 ([8]; Homo sapiens, HEK293): 480 ± 52 nM
IC50 ([9]; Homo sapiens, 22Rv1): 2330 ± 870 nM
IC50 ([10]; Homo sapiens, MRC9): 31900 ± 7070 nM
IC50 ([11]; Homo sapiens, PC-3): 3140 ± 980 nM
